According to patent publication US20250318524A1, “ANTIMICROBIAL COATING COMPOSITION AND METHOD OF USE THEREOF” (priority 2024, published 2025):

Assay: Selection of antimicrobial agents: solubility in aqueous solution, stability, compatibility with the coating composition

## N=C(NCCCCCCNC(=N)NC(=N)Nc1ccc(Cl)cc1)NC(=N)Nc1ccc(Cl)cc1.O=C(O)[C@H](O)[C@@H](O)[C@H](O)[C@H](O)CO.O=C(O)[C@H](O)[C@@H](O)[C@H](O)[C@H](O)CO [Chlorhexidine gluconate, chlorhexidine gluconate]
  solubility in water: good water solubility

## polyhexamethylene biguanide [PHMB]
  solubility in water: good water solubility
